Assay results taken from patent US9149038B2, “4-amino-6-(heterocyclic)picolinates and 6-amino-2-(heterocyclic)pyrimidine-4-carboxylates and their use as herbicides” (Dow AgroSciences LLC, priority 2013, dated 2015).
Read-outs that look alike come from different tables or passages of the source.

Columns and labels:
[1] = system: Key Grass and Sedge Weeds as well as Grass Crops; assay: Post-Emergent Test II: postemergent herbicidal activity, visual rating after 14 d (Table 8); format: in vivo; conditions: post-emergence, 336 h; for pest or weed control at 35 g/ha: 35 g ai/ha; for pest or weed control at 70 g/ha: 70 g ai/ha; for pest or weed control at 140 g/ha: 140 g ai/ha
How it was run: (§1)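 Post-emergence foliar spray, 187 L/ha, first/second true leaf stage plants in potting mix (pH 6.0-6.8). Rates: top rate and 2-fold serial dilutions to 1/16×. Solvent-blank controls. Readout: visual % kill at 14 d.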

[2] = system: Key Broadleaf Weed and Crop Species; assay: Post-Emergent Test II: postemergent herbicidal activity, visual rating after 14 d (Table 7); format: in vivo; conditions: post-emergence, 336 h; for pest or weed control at 35 g/ha: 35 g ai/ha; for pest or weed control at 70 g/ha: 70 g ai/ha; for pest or weed control at 140 g/ha: 140 g ai/ha
How it was run: as §1

[3] = barnyardgrass (Echinochloa crus-galli), read-out: Visual Growth Reduction (%) 14 Days After Application, ECHCG
[4] = giant foxtail (Setaria faberi), read-out: Visual Growth Reduction (%) 14 Days After Application, SETFA
[5] = maize, corn (Zea mays), read-out: Visual Growth Reduction (%) 14 Days After Application, ZEAMX
[6] = rice (Oryza sativa), read-out: Visual Growth Reduction (%) 14 Days After Application, ORYSA
[7] = wheat, spring (Triticum aestivum), read-out: Visual Growth Reduction (%) 14 Days After Application, TRZAS
[8] = yellow nutsedge (Cyperus esculentus), read-out: Visual Growth Reduction (%) 14 Days After Application, CYPES
[9] = ABUTH: velvetleaf (Abutilon theophrasti), read-out: Visual Growth Reduction (%) 14 Days After Application ABUTH
[10] = AMARE: redroot pigweed (Amaranthus retroflexus), read-out: Visual Growth Reduction (%) 14 Days After Application AMARE
[11] = BRSNN: oilseed rape, canola (Brassica napus), read-out: Visual Growth Reduction (%) 14 Days After Application BRSNN
[12] = CHEAL: lambsquarters (Chenopodium album), read-out: Visual Growth Reduction (%) 14 Days After Application CHEAL
[13] = EPHHL: wild poinsettia (Euphorbia heterophylla), read-out: Visual Growth Reduction (%) 14 Days After Application EPHHL
[14] = HELAN: sunflower (Helianthus annuus), read-out: Visual Growth Reduction (%) 14 Days After Application HELAN

Compound | pest or weed control at 70 g/ha [1, 3] [%] | pest or weed control at 140 g/ha [1, 3] [%] | pest or weed control at 70 g/ha [1, 4] [%] | pest or weed control at 140 g/ha [1, 4] [%] | pest or weed control at 70 g/ha [1, 5] [%] | pest or weed control at 140 g/ha [1, 5] [%] | pest or weed control at 70 g/ha [1, 6] [%] | pest or weed control at 140 g/ha [1, 6] [%] | pest or weed control at 70 g/ha [1, 7] [%] | pest or weed control at 140 g/ha [1, 7] [%] | pest or weed control at 70 g/ha [1, 8] [%] | pest or weed control at 140 g/ha [1, 8] [%] | pest or weed control at 70 g/ha [2, 9] [%] | pest or weed control at 140 g/ha [2, 9] [%] | pest or weed control at 70 g/ha [2, 10] [%] | pest or weed control at 140 g/ha [2, 10] [%] | pest or weed control at 70 g/ha [2, 11] [%] | pest or weed control at 140 g/ha [2, 11] [%] | pest or weed control at 70 g/ha [2, 12] [%] | pest or weed control at 140 g/ha [2, 12] [%] | other results
COC(=O)c1nc(-c2cccc3c2OC(F)(F)O3)nc(N)c1OC [Compound 99] | 0 to 29 | 0 to 29 | 0 to 29 | 0 to 29 | 0 to 29 | 0 to 29 | 0 to 29 | 0 to 29 | 0 to 29 | 0 to 29 | 0 to 29 | 0 to 29 | 0 to 29 | 0 to 29 | 0 to 29 | 0 to 29 | 0 to 29 | 0 to 29 | 75 to 84 | 85 to 94 | pest or weed control at 35 g/ha [1, 3]: 0 to 29%; pest or weed control at 35 g/ha [1, 4]: 0 to 29%; pest or weed control at 35 g/ha [1, 5]: 0 to 29%; pest or weed control at 35 g/ha [1, 6]: 0 to 29%; pest or weed control at 35 g/ha [1, 7]: 0 to 29%; pest or weed control at 35 g/ha [1, 8]: 0 to 29%; pest or weed control at 35 g/ha [2, 9]: 0 to 29%; pest or weed control at 35 g/ha [2, 10]: 0 to 29%; pest or weed control at 35 g/ha [2, 11]: 0 to 29%; pest or weed control at 35 g/ha [2, 12]: 60 to 74%; pest or weed control at 35 g/ha [2, 13]: 0 to 29%; pest or weed control at 70 g/ha [2, 13]: 0 to 29%; pest or weed control at 140 g/ha [2, 13]: 0 to 29%; pest or weed control at 35 g/ha [2, 14]: 75 to 84%; pest or weed control at 70 g/ha [2, 14]: 85 to 94%; pest or weed control at 140 g/ha [2, 14]: 85 to 94%
Nc1c(F)c(-c2ccc(Cl)c3c2OC(F)(F)O3)nc(C(=O)O)c1Cl [Compound 82] | 0 to 29 | 0 to 29 | 0 to 29 | 0 to 29 | 60 to 74 | 60 to 74 | 30 to 44 | 30 to 44 | 60 to 74 | 75 to 84 | 30 to 44 | 45 to 59 | 60 to 74 | 75 to 84 | 95 to 100 | 95 to 100 | 95 to 100 | 95 to 100 | 95 to 100 | 95 to 100 | pest or weed control at 35 g/ha ([1]; barnyardgrass (Echinochloa crus-galli), read-out: Visual Growth Reduction (%) 14 Days After Application ECHCG): 0 to 29%; pest or weed control at 35 g/ha ([1]; giant foxtail (Setaria faberi), read-out: Visual Growth Reduction (%) 14 Days After Application SETFA): 0 to 29%; pest or weed control at 35 g/ha ([1]; maize, corn (Zea mays), read-out: Visual Growth Reduction (%) 14 Days After Application ZEAMX): 45 to 59%; pest or weed control at 35 g/ha ([1]; rice (Oryza sativa), read-out: Visual Growth Reduction (%) 14 Days After Application ORYSA): 0 to 29%; pest or weed control at 35 g/ha ([1]; wheat, spring (Triticum aestivum), read-out: Visual Growth Reduction (%) 14 Days After Application TRZAS): 60 to 74%; pest or weed control at 35 g/ha ([1]; yellow nutsedge (Cyperus esculentus), read-out: Visual Growth Reduction (%) 14 Days After Application CYPES): 0 to 29%; pest or weed control at 70 g/ha [2, 13]: 0 to 29%; pest or weed control at 140 g/ha [2, 13]: 0 to 29%; pest or weed control at 70 g/ha [2, 14]: 85 to 94%; pest or weed control at 140 g/ha [2, 14]: 95 to 100%; pest or weed control at 35 g/ha ([2]; lambsquarters (Chenopodium album), read-out: Visual Growth Reduction (%) 14 Days After Application CHEAL): 95 to 100%; pest or weed control at 35 g/ha ([2]; oilseed rape, canola (Brassica napus), read-out: Visual Growth Reduction (%) 14 Days After Application BRSNN): 95 to 100%; pest or weed control at 35 g/ha ([2]; redroot pigweed (Amaranthus retroflexus), read-out: Visual Growth Reduction (%) 14 Days After Application AMARE): 95 to 100%; pest or weed control at 35 g/ha ([2]; sunflower (Helianthus annuus), read-out: Visual Growth Reduction (%) 14 Days After Application HELAN): 85 to 94%; pest or weed control at 35 g/ha ([2]; velvetleaf (Abutilon theophrasti), read-out: Visual Growth Reduction (%) 14 Days After Application ABUTH): 30 to 44%; pest or weed control at 35 g/ha ([2]; wild poinsettia (Euphorbia heterophylla), read-out: Visual Growth Reduction (%) 14 Days After Application EPHHL): 0 to 29%
